The values below come from PMC5391016 (PLoS ONE, 2017).

The subject of the test is T1, Epac1-camps-PDE4A1.
T1 construct: gene RAPGEF3
The following applies: read-out: pEC50 5.56 ± 0.08 (converted); 10 mM Tris, 10 mM MgCl2; apparent affinity; PDE catalytically impaired.

SMILES strings stand for the structures.

For the molecule `Nc1ncnc2c1ncn2[C@@H]1O[C@@H]2COP(=O)(O)O[C@H]2[C@H]1O` [cAMP], the EC50 was 2700 nM.
